# Assay results published in ChEMBL document CHEMBL1201862, “PubChem BioAssay data set” (2004).
#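 Dose response: 5 concentrations. Exposure: 48 h. Format: 96-well plates. Endpoint: linear interpolation; highest concentration if not reached. At the GI50, growth is halved.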 Calls of active or inactive are those of the source. Cut-off read from the data, not from the text of the source: active = GI50 up to about 1.1 µM and inactive = higher.
# Experiments:
# Assay in all cases: NCI anticancer screen, dose series, 48 h
# LXFL 529 = test system: LXFL 529
# RXF 631 = test system: RXF 631
# DMS-114 = test system: DMS-114
# HOP-18 = test system: HOP-18
# DMS-273 = test system: DMS-273
# SNB-78 = test system: SNB-78
# KM-20L2 = test system: KM-20L2
# XF498 = test system: XF498
SMILES,GI50 (LXFL 529),GI50 (RXF 631),GI50 (DMS-114),GI50 (HOP-18),GI50 (DMS-273),GI50 (SNB-78),GI50 (KM-20L2),GI50 (XF498)
COc1ccc(C(=O)C#Cc2cnc(O)nc2O)cc1,3.36 µM (inactive),8.89 µM (inactive),18.7 µM (inactive),24.5 µM (inactive),14.9 µM (inactive),16.1 µM (inactive),9.86 µM (inactive),–
COc1ccc(CCc2cc(OC)cc(OC)c2)cc1,32.9 µM (inactive),13.7 µM (inactive),3.9 µM (inactive),> 32.4 µM (inactive),5.15 µM (inactive),51.4 µM (inactive),13.6 µM (inactive),16.7 µM (inactive)
C=C(CS(=O)(=O)c1ccccc1)C(=O)OCC,13.4 µM (inactive),1.9 µM (inactive),5.37 µM (inactive),–,16.4 µM (inactive),–,21.8 µM (inactive),19.2 µM (inactive)
CCOC1=C2C(C)(CCC3[C@@]4(C)C=CC(=O)C(C)(C)C4CC(O)[C@@]23C)C(c2ccoc2)C1=O (some centres not stated),–,17.9 µM (inactive),15.6 µM (inactive),33.7 µM (inactive),25.2 µM (inactive),38.5 µM (inactive),17.1 µM (inactive),> 10 µM (inactive)
COC(=O)[C@@H](C)[C@H]1CC[C@@](C)(CCC2=C(C)CC3C=C(C)CCC3C2(C)C)OO1 (some centres not stated),1.03 µM (active),2 µM (inactive),1.81 µM (inactive),–,2.18 µM (inactive),2.23 µM (inactive),1.7 µM (inactive),–
C[C@]12CC[C@H](OC(=O)Cc3ccc(N(CCCl)CCCl)cc3)CC1CC[C@@H]1C2CC[C@]2(C)NC(=O)CCC12 (some centres not stated),8.3 µM (inactive),16 µM (inactive),6.31 µM (inactive),16.7 µM (inactive),5.64 µM (inactive),14.1 µM (inactive),5.58 µM (inactive),13.6 µM (inactive)
COc1ccc(NC(=O)/C(Cc2nc3ccccc3nc2O)=N\O)c(OC)c1,> 100 µM (inactive),> 100 µM (inactive),> 100 µM (inactive),> 100 µM (inactive),–,> 100 µM (inactive),> 100 µM (inactive),> 100 µM (inactive)
COC(=O)C[C@H]1CCC2(OCCO2)[C@]1(C)C(=O)OC,> 100 µM (inactive),> 100 µM (inactive),> 100 µM (inactive),–,> 100 µM (inactive),> 100 µM (inactive),–,> 100 µM (inactive)
O=C1CC2CCCC23CC2(CCN13)OCCO2 (configuration not stated),> 100 µM (inactive),> 100 µM (inactive),> 100 µM (inactive),> 100 µM (inactive),> 100 µM (inactive),> 100 µM (inactive),> 100 µM (inactive),> 100 µM (inactive)
CN(C)CCC(=O)/C=C\c1ccccc1,13.5 µM (inactive),18.1 µM (inactive),18.2 µM (inactive),22.6 µM (inactive),16.3 µM (inactive),15.5 µM (inactive),30.6 µM (inactive),14.9 µM (inactive)
CCN(CC)CCCCC1CCN(CC(=O)N2c3ccccc3NC(=O)CC2C)CC1 (configuration not stated),> 100 µM (inactive),30.1 µM (inactive),69 µM (inactive),> 100 µM (inactive),> 100 µM (inactive),> 100 µM (inactive),> 100 µM (inactive),–
CC[C@@]1(O)C(=O)OCc2c1cc1n(c2=O)Cc2cc3c(OC)cccc3nc2-1,0.492 µM (active),0.0628 µM (active),< 0.01 µM (active),0.0425 µM (active),< 0.01 µM (active),–,0.0622 µM (active),0.0942 µM (active)
COc1ccc(C(=O)C2=NON3OC23C(=O)c2ccc(OC)cc2)cc1 (configuration not stated),2.63 µM (inactive),15.1 µM (inactive),5.96 µM (inactive),18.9 µM (inactive),19.1 µM (inactive),13 µM (inactive),19.1 µM (inactive),10 µM (inactive)
CC1=NN(C(=O)CC(=O)N(C(=O)c2ccccc2Cl)c2ccc(C)cc2)C(=O)C1/N=N/c1ccc([N+](=O)[O-])cc1 (configuration not stated),49.4 µM (inactive),–,> 42.8 µM (inactive),> 62.8 µM (inactive),48.9 µM (inactive),57.5 µM (inactive),> 55.6 µM (inactive),> 100 µM (inactive)
Cc1cc(C)c2[s+]snc2c1,34.4 µM (inactive),96.6 µM (inactive),–,44.8 µM (inactive),47.1 µM (inactive),84.3 µM (inactive),> 100 µM (inactive),30 µM (inactive)
